From US20070286886A1, “Materials And Methods For Inducing Apoptosis In Adipocytes” (University of Tennessee Research Foundation, priority 2004, published 2007)
Entries after “also recorded” stand apart in the source; their conditions may differ.

Columns and labels:
Assay type in all cases: cell-based
[1] = tested on: caspase-3; test: Caspase-3 mRNA expression by real-time PCR in 3T3-L1 and UCP2-transfected 3T3-L1 adipocytes
Procedure: 3T3-L1 preadipocytes were incubated at a density of 8000 cells/cm2 (10 cm2 dish) and grown in Dulbecco's modified Eagle's medium (DMEM) containing 10% FBS and antibiotics (adipocyte medium) at 37° C. in 5% CO2 in air. Confluent preadipocytes were induced to differentiate with a standard differentiation medium consisting of DMEM-F10 (1:1, vol/vol) medium supplemented with 1% FBS, 1 μM dexamethasone, IBMX (0.5 mM), and antibiotics (1% penicillin-streptomycin). Preadipocytes were maintained in this differentiation medium for 3 days and subsequently cultured in adipocyte medium. Cultures were re-fed every 2-3 days to allow 90% cells to reach full differentiation before they were chemically treated. Chemicals were freshly diluted in adipocyte medium before treatment. Cells were washed with fresh adipocyte medium, re-fed with medium containing the different treatments, and incubated at 37° C. in 5% CO2 in air before analysis. Cell viability was measured via trypan blue exclusion.
UCP2 full-length cDNAs were amplified by […] using mRNAs isolated from mouse white adipose tissues. The PCR primers for this amplification are shown as follows: UCP2 forward, 5′-[…]-3′, reverse, 5′-[…]-3′. The PCR products were then subcloned into pcDNA4/His expression vectors. The linearized constructs were transfected into 3T3-L1 preadipocytes using lipofectamine plus standard protocol (Invitrogen, Carlsbad, Calif.). After 48 h of transfection, cells were split and cultured in selective medium containing 400 ug/ml zeocin for the selection of resistant colonies. Cells were fed with selective medium every 3 days until resistant colonies could be identified. These resistant foci were picked, expanded, tested for expression, and frozen for future experiments.
A total cellular RNA isolation kit (Ambion, Austin, Tex.) was used to extract total RNA from 3T3-L1 cells according to the manufacturer's instructions.
Adipocyte caspase-1, caspase-3, Bcl-2, and Bax mRNA were quantitatively measured using a Smart Cycler Real Time PCR System (Cepheid, Sunnyvale, Calif.) with a TaqMan 1000 Core Reagent Kit (Applied Biosystems, Branchburg, N.J.). The primers and probe sets were ordered from Applied Biosystems TaqMan Assays-on-Demand Gene Expression primers and probe set collection according to the manufacturer's instructions. Pooled 3T3-L1 adipocyte total RNA was serial-diluted in the range of 1.5625-25 ng and used to establish a standard curve; total RNAs for unknown samples were also diluted in this range. Reactions of quantitative RT-PCR for standards and unknown samples were Cepheid, Sunnyvale, Calif.) and TaqMan Real Time PCR Core Kit. The mRNA quantitation for each sample was further normalized using the corresponding 18 s quantitation, with a forward primer, 5′-[…]-3′, and a reverse primer, 5′-[…]-3′.
3T3-L1 preadipocytes were incubated at a density of 8000 cells/cm2 (10 cm2 dish) and grown in Dulbecco's modified Eagle's medium (DMEM) containing 10% FBS and antibiotics at 37° C. in 5% CO2. Confluent preadipocytes were induced to differentiate with a standard differentiation medium consisting of DMEM-F 10 (1:1, vol/vol) medium supplemented with 1% FBS, 1 μM dexamethasone, IBMX (0.5 mM) and antibiotics (1% penicillin/streptomycin). Preadipocytes were maintained in this differentiation medium for 3 days and subsequently cultured in adipocyte medium. Cultures were re-fed every 2-3 days to allow 90% cells to reach fully differentiation before conducting chemical treatment. Chemicals were freshly diluted in adipocyte medium before treatment. Cells were washed with fresh adipocyte medium, re-fed with medium containing the different treatments, and incubated at 37° C. in 5% CO2 in air before analysis. Cell viability was measured via trypan blue exclusion.
Adipocytes were incubated with adipocyte medium for 24 h with or without GDP, BK 8644, GDP plus BK8644 before total RNA extraction. […]

[2] = tested on: 3T3-L1 and UCP2-transfected 3T3-L1 adipocytes; test: Cytosolic/intracellular calcium (fura-2 dual-wavelength fluorescence imaging) in adipocytes
[3] = tested on: 3T3-L1 and UCP2-transfected 3T3-L1 adipocytes; test: Mitochondrial calcium (rhod-2 AM fluorescence) in adipocytes
Procedure: (§1) Rhod-2/AM was used for qualitative measurement of [Ca^2+]m. Cells were incubated with the Ca^2+-sensitive fluorescent indicator rhod-2 AM (1-1.5 μM) for at least 1 h at 37° C. in 5% CO2 in humidified air. Because rhod-2 AM consists of a cationic rhodamine molecule, it accumulates preferentially inside the mitochondria due to their negative membrane potential. After loading, the cells were kept in rhod-2 AM-free standard solution for at least 1 h to allow conversion of the dye to its Ca^2+-sensitive, free acid form. Images of [Ca^2+]m were acquired at the wavelength of 552 nm excitation and 590 nm emission using the intracellular imaging system described above. Because rhod-2 is not a ratiometric dye, its fluorescence intensity was not calibrated to obtain absolute values of [Ca^2+]m. Instead, only relative values were recorded as fluorescence signal (F) relative to the control value (F0). After baseline calcium concentration was measured, the 1α,25-(OH)2-D3 was immediately applied to the cells and the calcium concentration was measured again.
as §1, with “the Ca^2+ sensitive” for “the Ca^2+-sensitive”, “AM (1-1·5 μM),” for “AM (1-1.5 μM)”, “at 370 degrees Celsius” for “at 37° C.”, “air. Since” for “air. Because”, “above. Since” for “above. Because”, “(F0).” for “(F0). After baseline calcium concentration was measured, the 1α,25-(OH)2-D3 was immediately applied to the cells and the calcium concentration was measured again.”

SMILES	caspase-3 expression ([1]; high dose 100 nM, 24 h, control and UCP2-transfected 3T3-L1 cells, P<0.01)	caspase-3 expression ([1]; physiological low doses 0.1 nM, 1 nM, 5 nM, 10 nM, 24 h, control and UCP2-transfected 3T3-L1 cells, P<0.05)	cytosolic calcium levels ([2]; 1 nM, 5 nM, 10 nM, 100 nM, control and UCP2-transfected cells)	increase in calcium influx, high dose relative to the lower doses ([2]; high dose (100 nM) vs lower doses)	mitochondrial calcium [Ca2+]m ([3]; high dose (100 nM))	increase of mitochondrial Ca2+ ([3]; high dose (100 nM), P<0.05)	mitochondrial calcium [Ca2+]m ([3]; low doses (0.1 nM to 10 nM), control and UCP2-transfected cells)	suppression of mitochondrial Ca2+ levels ([3]; physiological doses (0.1-10 nM))	caspase-3 expression ([1]; 3T3-L1 cells, Bay K 8644 5-100 nM range of FIG. 15)	adipocyte Ca2+ influx / [Ca2+]i ([2]; 1 nM-100 nM, 3T3-L1 cells)	increases in [Ca2+]i ([2]; 3T3-L1 cells)	mitochondrial calcium ([3]; 3T3-L1 cells, p<0.05)
C=C1/C(=C\C=C2/CCC[C@]3(C)[C@@H]([C@H](C)CCCC(C)(C)O)CC[C@@H]23)C[C@@H](O)C[C@@H]1O [1α,25-(OH)2-D3, 1α,25-dihydroxyvitamin D3]	stimulated	inhibited	dose-dependent increase; also recorded: dose-dependently	10 fold	significantly stimulated	25%	decreased; also recorded: significant decreases	~50%	–	–	–	–
COC(=O)C1=C(C)NC(C)=C([N+](=O)[O-])C1c1ccccc1C(F)(F)F (stereo not drawn) [Bay K 8644]	–	–	–	–	–	–	–	–	dose-dependently	dose-dependent	3-4 fold	increased
